Results taken from USRE49735E1 (BRISTOL-MYERS SQUIBB COMPANY, priority 2010, dated 2023).
“And” between values parts separate entries of the source, which are not always exact repeats. Equal entries are not always repeated.

Each compound was assayed against human mGluR5A (Homo sapiens, UniProt P41594) (assay: mGluR5 FLIPR Assay). Settings: positive modulator activity; HEK293 (ZF) cells with human mGluR5A and rat GLAST; Ca++ response to ~EC10 glutamate.
human mGluR5A, sequence (P41594 21-1180 isoform P41594-2): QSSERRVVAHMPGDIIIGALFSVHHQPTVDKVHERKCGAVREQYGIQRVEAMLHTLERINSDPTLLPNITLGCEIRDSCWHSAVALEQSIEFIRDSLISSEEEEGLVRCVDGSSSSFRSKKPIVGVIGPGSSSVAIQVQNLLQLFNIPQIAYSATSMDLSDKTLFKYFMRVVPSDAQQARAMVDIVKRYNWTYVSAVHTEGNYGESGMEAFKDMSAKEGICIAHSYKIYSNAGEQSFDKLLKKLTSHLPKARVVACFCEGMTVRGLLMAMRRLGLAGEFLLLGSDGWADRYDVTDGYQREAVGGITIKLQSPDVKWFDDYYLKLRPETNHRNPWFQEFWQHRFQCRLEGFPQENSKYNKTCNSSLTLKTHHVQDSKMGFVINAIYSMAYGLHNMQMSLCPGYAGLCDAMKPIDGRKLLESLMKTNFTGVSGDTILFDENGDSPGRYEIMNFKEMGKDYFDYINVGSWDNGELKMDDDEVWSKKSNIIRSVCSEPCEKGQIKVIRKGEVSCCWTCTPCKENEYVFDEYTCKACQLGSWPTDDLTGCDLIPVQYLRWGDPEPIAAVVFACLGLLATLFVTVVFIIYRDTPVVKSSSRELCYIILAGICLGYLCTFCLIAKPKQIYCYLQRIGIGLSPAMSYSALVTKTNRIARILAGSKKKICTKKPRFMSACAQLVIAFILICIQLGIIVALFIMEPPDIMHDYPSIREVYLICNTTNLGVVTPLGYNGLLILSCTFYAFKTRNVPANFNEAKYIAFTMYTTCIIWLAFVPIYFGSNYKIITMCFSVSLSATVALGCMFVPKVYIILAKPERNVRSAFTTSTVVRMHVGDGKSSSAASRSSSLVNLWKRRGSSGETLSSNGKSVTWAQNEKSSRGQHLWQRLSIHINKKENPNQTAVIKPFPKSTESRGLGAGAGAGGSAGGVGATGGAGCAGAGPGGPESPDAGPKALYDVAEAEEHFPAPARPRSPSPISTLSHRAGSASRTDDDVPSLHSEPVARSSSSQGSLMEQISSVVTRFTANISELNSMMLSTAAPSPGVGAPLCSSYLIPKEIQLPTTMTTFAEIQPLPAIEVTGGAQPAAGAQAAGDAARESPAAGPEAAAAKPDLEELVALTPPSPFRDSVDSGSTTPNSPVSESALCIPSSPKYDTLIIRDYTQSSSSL
Type: cell-based
Method: HEK293 (ZF) cells stably transfected with human mGluR5A (pIRES neo) and the rat glutamate-aspartate transporter (GLAST; pIRES puro) are grown in a monolayer culture at 37° C. in 5% CO2 and fed with Minimum Essential Medium (MEM) supplemented with 10% dialysed fetal bovine serum. 24 hours prior to assay, cells are enzymatically dissociated from the culture flask (Trypsin, 0.25%), spun down (1000 rpm, 3 min), resuspended, and plated on Greiner black clear bottomed PDL-coated 384-well plates at a density of 30 thousand cells/well. […] Plates are incubated in dye at 37° C. in 5% CO2 for 60 minutes prior to delivery of test compounds in assay buffer. Test compounds are incubated with cells in the presence of dye for 10 minutes prior to being read on the FLIPR platform (Molecular Devices). A Ca^++ signal is induced in the assay plates via the delivery of an ˜EC10 concentration of the endogenous agonist 1-glutamate; images are acquired at 1 Hz for 100 seconds post-delivery of agonist stimulus. Positive modulator activity (i.e. the ability of test compounds to increase the Ca^++ response to a sub-maximal concentration of agonist) is normalized to a saturating concentration of a known mGluR5 PAM run in each assay plate. An EC50 concentration of test compounds is derived from 4-parameter logistic curve fits of transformed fluoresence data via proprietary software suite.
Work on `O=C1N[C@H](c2cncc(C#Cc3ccccn3)c2)[C@@H](c2cc(F)ccc2F)O1` [Example 189] yielded an EC50 greater than 1000 nM. For `O=C1N[C@H](c2ccnc(C#Cc3ccccc3)c2)[C@@H](c2cccnc2)O1` [Example 254], the EC50 was greater than 1000 nM. `C[C@@]1(c2cccc(C#Cc3ccccc3)n2)NC(=O)O[C@@H]1c1ccccc1F` (single isomer, unassigned) [Example 376] was tested, and the EC50 was 100 to 1000 nM. Work on `COc1cccc([C@H]2OC(=O)N[C@@H]2c2cccc(C#Cc3ccccc3F)n2)c1` [Example 9, (4R,5R)-4-(6-((2-Fluorophenyl)ethynyl)pyridin-2-yl)-5-(3-methoxyphenyl)oxazolidin-2-one] yielded an EC50 greater than 1000 nM. Work on `O=C1N[C@@H](c2cccc(C#Cc3ccccc3)c2)[C@H](c2cccs2)O1` (racemic) [Example 103, trans-4-(3-(phenylethynyl)phenyl)-5-(thiophen-2-yl)oxazolidin-2-one] yielded an EC50 of less than 100 nM. Work on `O=C1N[C@H](c2cncc(C#Cc3cncc(F)c3)c2)[C@@H](c2cccnc2)O1` [Example 201] yielded an EC50 of 100 to 1000 nM. `O=C1N[C@@H](c2cccc(C#Cc3ccccc3)c2)[C@H](c2ccncn2)O1` [Example 238] was tested, and the EC50 was greater than 1000 nM. `COc1cccc([C@H]2OC(=O)N[C@@H]2c2cccc(C#Cc3cc(F)cc(F)c3)c2)c1` [Example 123, (4R,5R)-4-(3-((3,5-difluorophenyl)ethynyl)phenyl)-5-(3-methoxyphenyl)oxazolidin-2-one] gave an EC50 of 100 to 1000 nM. `O=C1N[C@H](c2cncc(C#Cc3ccccc3)c2)[C@@H](c2cccc(Cl)c2Cl)O1` (single isomer, unassigned) [Example 330] gave an EC50 of less than 100 nM. For `O=C1N[C@H](c2cncc(C#Cc3ccccc3)c2)[C@@H](c2ccc(Cl)cc2)O1` (single isomer, unassigned) [Example 360], the EC50 was < 100 nM and 2 nM. `COc1cccc([C@H]2OC(=O)N[C@@H]2c2cccc(C#Cc3ccc(C)nc3)c2)c1` [Example 83, (4R,5R)-5-(3-Methoxyphenyl)-4-(3-((6-methylpyridin-3-yl)ethynyl)phenyl)oxazolidin-2-one] showed an EC50 of 100 to 1000 nM. With `O=C1N[C@H](c2cncc(C#Cc3ccccc3)c2)[C@@H](c2c(F)cc(F)cc2F)O1` [Example 292] the EC50 was less than 100 nM. `O=C1N[C@@H](c2cccc(C#Cc3cccc(F)c3)n2)[C@H](c2ccc(F)cc2F)O1` (single isomer, unassigned) [Example 312] was tested, and the EC50 was greater than 3000 nM. Work on `O=C1N[C@H](c2cncc(C#Cc3ccc(F)cc3)c2)[C@@H](c2cc(F)ccc2F)O1` [Example 279] yielded an EC50 of less than 100 nM. `COc1cccc([C@H]2OC(=O)N[C@@H]2c2cccc(C#Cc3cccnc3C#N)c2)c1` [Example 53, 3-((3-((4R,5R)-5-(3-Methoxyphenyl)-2-oxooxazolidin-4-yl)phenyl)ethynyl)picolinonitrile] gave an EC50 greater than 1000 nM. For `COc1cccc([C@H]2OC(=O)N[C@@H]2c2cccc(C#Cc3cccc(O)n3)c2)c1` [Example 77, (4R,5R)-4-(3-((6-Hydroxypyridin-2-yl)ethnyl)phenyl)-5-(3-methoxyphenyl)-oxazolidin-2-one], the EC50 was greater than 1000 nM. `O=C1N[C@H](c2cc(C#Cc3ccccc3)ncn2)[C@@H](c2cccc(F)c2)O1` (racemic) [Example 271] showed an EC50 greater than 1000 nM. `Cc1cccc(C#Cc2cncc([C@H]3NC(=O)O[C@@H]3c3cccc(F)c3)c2)c1` [Example 401, (4R,5R)-5-(3-fluorophenyl)-4-(5-(m-tolylethynyl)pyridin-3-yl)oxazolidin-2-one] showed an EC50 of less than 100 nM. Work on `O=C1N[C@H](c2cncc(C#Cc3ccc(F)cc3)c2)[C@@H](c2cccc(F)c2F)O1` [Example 286] yielded an EC50 of less than 100 nM. For `O=C1N[C@H](c2cc(C#Cc3cccnc3)cnc2F)[C@@H](c2ccc(F)cc2)O1` [Example 142, (4R,5R)-4-(2-Fluoro-5-(pyridin-3-ylethynyl)pyridin-3-yl)-5-(4-fluorophenyl)oxazolidin-2-one], the EC50 was < 100 nM and 3.7 nM. For `O=C1N[C@H](c2cncc(C#Cc3ccccc3)c2)[C@@H](c2ncco2)O1` [Example 339, (4R,5S)-5-(oxazol-2-yl)-4-(5-(phenylethynyl)pyridin-3-yl)oxazolidin-2-one], the EC50 was greater than 1000 nM.
